Tests used:
[1] = Inhibition of hemozoin formation in 0.5 M acetate buffer at pH 4.8 after 12 hrs by tube-based high-throughput assay; type: functional
[2] = Inhibition of hemozoin formation in parasite digestive vacuole extract by microtiter plate-based high-throughput assay; type: functional
[3] = Inhibition of hemozoin formation in 12.9 M acetate buffer at pH 4.5 at 60 degC after 1 hr by microtiter-based high-throughput assay; type: functional
[4] = Inhibition of hemozoin formation in 0.5 M acetate buffer at pH 4.8 after 12 hrs by microtiter plate-based high-throughput assay in presence of trophozoite lysate; type: functional
[5] = Inhibition of hemozoin formation in 8 M acetate buffer at pH 5 after 18 hrs by microtiter plate-based high-throughput assay; type: functional
[6] = Inhibition of hemozoin formation in 0.5 M acetate buffer at pH 4.8 after 24 hrs by microtiter plate-based high-throughput assay; type: functional
[7] = Inhibition of hemozoin formation in 9.7 M acetate buffer at pH 4.8 at 60 degC after 2 hrs by microtiter-based high-throughput assay; type: functional
[8] = Inhibition of hemozoin formation by microtiter plate-based high-throughput assay; type: functional
[9] = Inhibition of hemozoin formation in acetonitrile trophozoite extract by microtiter plate-based high-throughput assay; type: functional
[10] = Inhibition of hemozoin formation in 0.5 M acetate buffer at pH 4.8 after 16 hrs by tube-based high-throughput assay in presence of 0.002 mg/mL phosphatidylcholine; type: functional
[11] = Inhibition of hemozoin formation in 0.1 M acetate buffer at pH 4.8 after 12 hrs by tube-based high-throughput assay in presence of Plasmodium yoelii homogenate; type: functional, tissue-based

IC50 [1] [µM] | IC50 [10] [µM] | IC50 [11] [µM] | SMILES | IC50 [2] [µM] | IC50 [3] [µM] | IC50 [4] [µM] | IC50 [5] [µM] | IC50 [6] [µM] | IC50 [7] [µM] | IC50 [8] [µM] | IC50 [9] [µM]
15.1 |  |  | CCN(CC)Cc1cc(Nc2ccnc3cc(Cl)ccc23)ccc1O | 60 | 1.45 | 203 | 0.85 | 60 | 67 | 60 | 73
24.4 | 117 | 43.8 | CCN(CC)CCCC(C)Nc1ccnc2cc(Cl)ccc12 (configuration not stated) [CHLOROQUINE] | 50 | 1.91 | 400 | 1.63 | 45 | 374 | 45 | 
46.9 |  |  | OC(c1cc(C(F)(F)F)nc2c(C(F)(F)F)cccc12)C1CCCCN1 (configuration not stated) [MEFLOQUINE] | 80 | 2.9 | 200 | 6.18 | 120 | 476 | 120 | 140
64.8 | 201 | 41.6 | C=C[C@H]1CN2CC[C@H]1C[C@H]2[C@H](O)c1ccnc2ccc(OC)cc12 [QUININE] | 100 | 3.5 | 430 |  | 160 |  | 160 | 78

Source: ChEMBL document CHEMBL2396545, “Quinoline drug-heme interactions and implications for antimalarial cytostatic versus cytocidal activities” (J Med Chem, 2013)
